From US20230285481A1, “TREATMENT OF CANCER HARBORING MUTATIONS IN THE TP53 GENE AND/OR POST-TRANSLATIONAL MODIFICATIONS IN THE P53 PROTEIN WITH PARVOVIRUSES” (UNIVERSIDAD AUTÓNOMA DE MADRID, priority 2018, published 2023)

Assays:
Assay type in all cases: cell-based, human
[1] = test system: U87-MG glioblastoma cells; experiment: MVM infection markers (NS1, Pp53-S15, vDNA) by IF-confocal, Southern and western blot in U87-MG
Description: Immunofluorescence analyses were performed on neurospheres of hGSCs (human glioblastoma stem cells) and established adherent cell lines as follows: • Neurosphere staining. The cell spheres were fixed for 30 minutes with paraformaldehyde (PFA) 4%, then permeabilized for 10 minutes at room temperature with 0.1% Triton X-100 (Merck) in PBS, and blocked by incubating 20 minutes with 0.1% Triton X-100 and 10% fetal bovine serum (Sigma) in PBS. Neurospheres were incubated in the same buffer with the primary antibodies indicated in the figures for 1 h at 37° C., and finished by four five-minute PBS washes. Then neurospheres were incubated with the secondary antibodies at appropriate concentrations in the same buffer and conditions, and finally stained with DAPI for half an hour and mounted embedding at 37° C. in 0.8% agarose-LGT prepared in PBS. Embedded neurospheres were applied as 200 microliters drops on pre-cooled large (2×3 cm) coverslips and stored at 4° C. in the dark until confocal analysis. • Adherent cells. The cell lines were seeded on coverslips, treated as indicated in the figures and fixed for 10 minutes with 4% paraformaldehyde. Staining with antibodies was carried out essentially as described above for the neurospheres. Cells were mounted with Fluoromount G (Southern Biotech). Preparations were kept at least 16 h at room temperature in the dark before observation under a microscope. • Analysis of virus replication by FISH. This method was used to determine the degree of replication of the parvovirus MVM genome. The probe used was a mixture of three DNA oligonucleotides labeled at the 3′ terminal end with the Cy5 fluorophore, and complementary to different sequences of the MVM genome. […] The images were processed with Adobe Photoshop CS5 programs (Adobe Systems Incorporated) and ImageJ/FIJI (http://rsb.info.nih.gov/ij/) taking the same samples as a zero-signal reference without antibodies (auto-fluorescence control), or only with secondary antibodies. […]

[2] = test system: U373-MG glioblastoma cells; experiment: MVM infection markers (NS1, Pp53-S15, vDNA) by cytometry, IF-confocal and western blot in U373-MG
Excerpt: In all the experiments, a minimum of 30,000 events per sample were acquired in a FACSCantoII cytometer (BD Biosciences), which were pre-selected by a region based on their size and complexity (FSC and SSC parameters, respectively) in order to exclude cellular debris and other contaminating particles. The CellQuest software (BD Biosciences) was used to acquire the events and the FlowJo software (Tree Star) was used to analyze the data. The cell cycle analysis was in accordance to [Gil-Ranedo, J., Hernando, E., Riolobos, L., Dominguez, C., Kann, M, and José M Almendral. 2015. The mammalian cell cycle regulates nuclear parvovirus capsid assembly. PlosPathogens, 11; 11 (6): e1004920]. For staining, cells were permeabilized with PBS+0.1% triton X-100 for 10 minutes at room temperature, then blocked with the same buffer supplemented with 1% FCS for 20 minutes. Cells were re-suspended in PBS (pH 7.2)+0.5% BSA and the primary antibodies indicated in the figures were added followed by 1 h stirring at 37° C. Cells were washed in PBS and the secondary antibodies were added and incubated similarly. Two further washes in PBS were made before analyzing the samples in the flow cytometer.
Immunofluorescence analyses were performed on neurospheres of hGSCs (human glioblastoma stem cells) and established adherent cell lines as follows: • Neurosphere staining. The cell spheres were fixed for 30 minutes with paraformaldehyde (PFA) 4%, then permeabilized for 10 minutes at room temperature with 0.1% Triton X-100 (Merck) in PBS, and blocked by incubating 20 minutes with 0.1% Triton X-100 and 10% fetal bovine serum (Sigma) in PBS. Neurospheres were incubated in the same buffer with the primary antibodies indicated in the figures for 1 h at 37° C., and finished by four five-minute PBS washes. Then neurospheres were incubated with the secondary antibodies at appropriate concentrations in the same buffer and conditions, and finally stained with DAPI for half an hour and mounted embedding at 37° C. in 0.8% agarose-LGT prepared in PBS. Embedded neurospheres were applied as 200 microliters drops on pre-cooled large (2×3 cm) coverslips and stored at 4° C. in the dark until confocal analysis. • Adherent cells. The cell lines were seeded on coverslips, treated as indicated in the figures and fixed for 10 minutes with 4% paraformaldehyde. Staining with antibodies was carried out essentially as described above for the neurospheres. Cells were mounted with Fluoromount G (Southern Biotech). Preparations were kept at least 16 h at room temperature in the dark before observation under a microscope. • Analysis of virus replication by FISH. This method was used to determine the degree of replication of the parvovirus MVM genome. The probe used was a mixture of three DNA oligonucleotides labeled at the 3′ terminal end with the Cy5 fluorophore, and complementary to different sequences of the MVM genome. Cells adhered and fixed in 4% paraformaldehyde were permeabilized for 10 minutes with 0.2% Triton X-100 (Merck) in PBS and equilibrated for 5 minutes at room temperature in 2×SSC (0.3 M NaCl; 30 mM Na2C6H5O7, pH 7) supplemented with 15% formamide. Hybridization was with 500 ng/ml of each oligonucleotide in FISH buffer (5×SSC, 0.5% SDS, 10% dextran sulfate, 50% formamide) for 2.5 hours at 37° C. The preparations were washed twice with 2×SSC, 15% formamide for 30 minutes. […]

[3] = test system: U373-MG glioblastoma cells; experiment: Clonogenic analysis of cell viability (colony formation) in U373-MG; conditions: single agent: CisPt 1-hour treatment, or MVMp singly inoculated at two MOI
Description: Consequently, the CisPt dose effect on different MVMp life cycle parameters, and on p53 phosphorylation and functional signaling in U373-MG cells, was analyzed. For this, the U373-MG cells treated with Cis-Platinum doses (10-120 microM) for 1 hour at 37° C. were inoculated with MVMp to allow adsorption, and then of the infection was allowed to progress for 24 hours. Cells were sampled and processed for virus macromolecular markers and Pp53-S15 determinations.
We finally analyzed whether these MVM/CisPt cooperative effects impact cancer cells viability, and therefore whether they imply a therapeutic significance.

SMILES	p53 phosphorylation at the Ser15 residue ([1]; uninfected U87-MG cells, IF-confocal)	percentage of NS1+ cells after drug pre-treatment ([1]; U87-MG treated with different Cis-Pt doses prior to MVMp infection)	MVMp genome replication (vDNA) after drug pre-treatment ([1]; U87-MG, Cis-Pt dose effect, MVMp infection)	NS1 levels by western blot ([2]; MVMp infected U373-MG, 5 to 20 microM CisPt)	virus genome (vDNA) replication levels ([2]; MVMp infected U373-MG, IF-confocal, CisPt dose effect)	percentage of cells expressing NS1 and level of NS1 expression ([2]; MVMp infected U373MG, flow cytometry, combined treatment with single dose of CD versus simple infection)	Pp53-S15 levels ([2]; U373-MG, IF-confocal, 5-20 microM Cis-Pt, 1 hour, then MVMp 24 hours)	Pp53-S15 induction ([2]; U373MG, flow cytometry, single dose, also in treated non-infected cells)	cell viability (clonogenic assay) [3]
O=c1[nH]cc(F)c(=O)[nH]1 [5FU, 5-fluorouracil]	substantially increased								
N.N.[Cl][Pt][Cl] [CisPt, Cisplatin]		very significant increase	benefitted from the 10 or 20 microM Cis-Pt treatment, but not from higher doses	increasing NS1 levels	benefitted from 10 microM CisPt but not from higher doses	highest increase	significant increase	generalized Pp53-S15 induction in all cells	progressively decreased the viability
